Test system: IEC-6 rat intestinal cells viability, luminescence
Assay: PubChem AID 1972

Work on `COc1cc2c(c(OC)c1OC)-c1ccc(O)c(=O)cc1C(NC(C)=O)CC2` (stereo unspecified) yielded an IC50 of 121 nM.

— PubChem BioAssay AID1972 (The Scripps Research Institute Molecular Screening Center, 2009)
